The results in this text go back to PubChem BioAssay (NCI).

Holding throughout (assay): DTP human tumour cell line panel, 48 h
Test [1] relates to SR leukemia.
Test [2] has as its system CAKI-1 renal.
Test [3] has as its system SF-539 CNS.
In test [4] the test system is SK-MEL-5 melanoma.
Test [5] deals with SNB-19 CNS.
Test [6] deals with OVCAR-3 ovarian.
Test [7] relates to A498 renal.
Test [8] deals with SF-268 CNS.
The subject of test [9] is SK-MEL-28 melanoma.
The subject of test [10] is SN12C renal.

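Assay format: 96-well plates, 48-hour exposure. GI50 = concentration required for 50% inhibition of growth. TGI denotes the concentration required for complete inhibition of growth.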

Broadly, the GI50 is the concentration at which growth is held to half of that of the control. A word on the TGI: it is the concentration giving total growth inhibition. Low values mean greater sensitivity of the cells, high ones lower sensitivity of the cells. Take `CCCCCCCCCCCCCCCCCC1=NC(C)(C)CN1CC(C)O` (stereo not given): the GI50 in [1] is 2.75 µM; in test [2], 14.4 µM; in [3], 4.03 µM; in test [4] it was 17.4 µM; in test [5], 7.08 µM; in test [6] it was 5.35 µM. For the same compound, the GI50 in test [7] is 15.3 µM; in [8], 1.94 µM; in test [9], 17.1 µM; in test [10] it was 10.5 µM. The TGI in test [1] was over 100 µM; in [2], 29.4 µM; in test [3], 19.1 µM; in test [4], 32 µM; in [5], 31.5 µM; in [6] it was 19.5 µM. The TGI in test [7] worked out at 32.2 µM; in test [8] it was 4.06 µM; in test [9] it was 33.5 µM; in test [10], 24.4 µM.

In the case of `NS(=O)(=O)c1ccc(-n2nc3c(c2-c2ccc(Cl)cc2)Cc2ccccc2-3)cc1`, the GI50 in [1] is 5.82 µM; in test [2], 17.5 µM; in [3], 17.5 µM; in test [4], 1.36 µM; in [5], 31.7 µM; in test [6], 17 µM. Further, the GI50 was 4.7 µM in test [7], 22.4 µM in test [8], 18.3 µM in test [9] and 5.49 µM in [10]. Further, the TGI in test [1] was 21.3 µM; in test [2], 31.6 µM; in [3] it was 31.6 µM; in [4] it was 3.33 µM; in [5], over 100 µM; in test [6], 31.6 µM. For the same compound, the TGI in test [7] came to 19.1 µM; in test [8] it was 50.4 µM; in test [9] it was 35 µM; in [10] it was 18.3 µM.

Turning to `[C](#Cc1ccccc1)[Hg][C]#Cc1ccccc1`, the GI50 in test [1] was 23.5 µM; in [2], 20 µM; in test [3], 53.1 µM; in test [4], 53.3 µM; in [5], 47.3 µM; in test [6], 39.8 µM. Besides, the GI50 in [7] was over 100 µM; in test [8], 18.7 µM; in test [9], 14.7 µM; in test [10], 30.1 µM. The TGI in test [1] was over 100 µM; in test [2] it was 41.7 µM; in test [3], over 100 µM; in [4], over 100 µM; in test [5], over 100 µM; in test [6], over 100 µM. Further, the TGI in test [7] is over 100 µM; in [8], 38 µM; in [9], 36.2 µM; in test [10], 73.3 µM.

For `COc1cc(OC)c(C(=O)/C=C/c2cc3c(cc2OCc2ccccc2)OC(C)(C)CC3)cc1CC=C(C)C`, the GI50 is 2.77 µM in test [1]; 6.74 µM in test [2]; 4.53 µM in test [3]; 3.33 µM in test [4]; 6.22 µM in test [5]; 4.89 µM in test [6]. Moreover, the GI50 in [7] is 5.42 µM; in test [8], 4.82 µM; in [9] it was 4.07 µM; in test [10], 7.36 µM. The TGI amounted to 22.8 µM in test [1]; 16.9 µM in test [2]; 8.8 µM in [3]; 6.53 µM in [4]; 17.3 µM in test [5]; 13.1 µM in test [6]. Also, the TGI in test [7] is 21.8 µM; in test [8], 15.2 µM; in test [9] it was 9.23 µM; in test [10], over 25 µM.

As to `Cc1nc(-c2ccccc2)n2nc(NCCCN3CCOCC3)ncc12`, the GI50 in test [1] was over 25 µM; in [2], 6.86 µM; in test [3] it was over 25 µM; in test [4], over 16.7 µM; in test [5] it was over 25 µM; in [6], over 25 µM. Moreover, the GI50 in [7] was 6.5 µM; in test [8], over 25 µM; in test [9], over 25 µM; in test [10], over 25 µM. Moreover, the TGI in test [1], in test [2], in test [3], in test [4], in [5] and in [6] was over 25 µM throughout. The TGI in test [7], in [8], in test [9] and in test [10] was over 25 µM throughout.

Turning to `CC(=O)Oc1ccc(C23c4ccccc4C2(OC(C)=O)c2cc(OC(C)=O)ccc23)cc1` (stereo not given), the GI50 is 3.14 µM in test [1]; 4.08 µM in test [2]; 6.48 µM in [3]; 6.19 µM in test [4]; 4.64 µM in test [5]; 8.32 µM in [6]. The GI50 is 34.8 µM in test [7], 5.54 µM in [8], 31.6 µM in [9] and 5.37 µM in [10]. The TGI in test [1] was 24.2 µM; in test [2], 17.2 µM; in test [3], 28.6 µM; in test [4] it was 20.3 µM; in test [5] it was 15.5 µM; in test [6] it was 52.9 µM. Moreover, the TGI is over 100 µM in test [7], 22 µM in test [8], over 100 µM in [9] and 20.2 µM in test [10].
